For data set [1] the following is noted: cited from earlier work.
For data set [2] the following is noted: human, in vivo.
A further data set deals with T1, Topoisomerase I (Homo sapiens, UniProt P11387).
T1 sequence (P11387 1-765): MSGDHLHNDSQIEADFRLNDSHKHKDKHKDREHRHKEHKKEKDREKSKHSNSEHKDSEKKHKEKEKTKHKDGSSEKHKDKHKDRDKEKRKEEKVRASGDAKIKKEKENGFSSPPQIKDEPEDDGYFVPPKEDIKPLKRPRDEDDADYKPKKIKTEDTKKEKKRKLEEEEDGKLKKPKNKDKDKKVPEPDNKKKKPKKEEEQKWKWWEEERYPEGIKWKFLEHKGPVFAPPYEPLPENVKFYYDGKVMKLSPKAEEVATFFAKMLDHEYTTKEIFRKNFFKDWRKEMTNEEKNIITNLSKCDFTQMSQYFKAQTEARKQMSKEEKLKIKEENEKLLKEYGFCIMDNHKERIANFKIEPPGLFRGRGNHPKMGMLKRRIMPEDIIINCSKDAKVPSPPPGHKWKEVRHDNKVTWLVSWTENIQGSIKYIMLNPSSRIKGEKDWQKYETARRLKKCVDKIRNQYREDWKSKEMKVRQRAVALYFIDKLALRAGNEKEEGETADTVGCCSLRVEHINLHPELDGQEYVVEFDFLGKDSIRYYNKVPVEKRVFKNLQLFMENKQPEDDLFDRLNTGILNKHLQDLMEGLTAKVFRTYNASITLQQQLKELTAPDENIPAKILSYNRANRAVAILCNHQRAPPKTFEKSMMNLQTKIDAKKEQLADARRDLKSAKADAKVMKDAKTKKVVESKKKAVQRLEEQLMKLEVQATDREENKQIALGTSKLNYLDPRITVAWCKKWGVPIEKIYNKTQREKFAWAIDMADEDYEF
Particulars: metabolite formed by nonspecific carboxylesterases; cited from earlier work.

The conditions of data set [3]: single-agent irinotecan 350 mg/m^2 once every-3-weeks, cited from earlier work.

Consider 4 molecules from US11071726B2, “Treating gastric cancer using combination therapies comprising liposomal irinotecan, oxaliplatin, 5-fluorouracil (and leucovorin)” (Ipsen Biopharm Ltd., priority 2016, dated 2021).

Like-named read-outs stand apart in the source and are kept apart here.

For FOLFIRINOX, in data set [1] (Phase 3 study of the FOLFIRINOX combination), the “incidence of most common Grade 3-4 adverse events (neutropenia, fatigue, vomiting, diarrhea, thrombocytopenia, sensory neuropathy, anemia, elevated ALT, thromboembolism, febrile neutropenia)” value was no less than 5%. The toxicity result in data set [1] (first-line treatment) is “significant toxicity”.

Regarding “irinotecan sucrose octasulfate salt liposome injection [MM-398]”, in data set [2], the “consecutive doses of dose level 1 received by any patient” value is reported as no more than 2; the “patients administered dose level 1 on day 15 of cycle 1” value is 3; the “patients administered dose level −1 on days 1 and 15 of cycle 1” value was 6.

Turning to `CCc1c2c(nc3ccc(O)cc13)-c1cc3c(c(=O)n1C2)COC(=O)[C@]3(O)CC` [SN-38], at Topoisomerase I, the “activity relative to irinotecan” value is recorded as 100-1000 fold.

Regarding `CCc1c2c(nc3ccc(OC(=O)N4CCC(N5CCCCC5)CC4)cc13)-c1cc3c(c(=O)n1C2)COC(=O)[C@]3(O)CC` [irinotecan, (S)-4,11-diethyl-3,4,12,14-tetrahydro-4-hydroxy-3,14-dioxo1H-pyrano[3′,4′:6,7]-indolizino[1,2-b]quinolin-9-yl-[1,4′bipiperidine]-1′-carboxylate], the “incidence of grade 4 neutropenia” value was 12.5% in data set [3] (patients heterozygous (UGT1A1 6/7 genotype)) and no more than 50% in data set [3] (patients homozygous for the UGT1A1*28 allele). Further, the “grade 4 neutropenia” value in data set [3] (patients homozygous for the wild-type allele (UGT1A1 6/6 genotype)) is reported as “no grade 4 neutropenia was observed”.
